Columns and labels:
MV4,11 cells = assay: Cell Assay: CS0001, FLT3 assay using MV4,11 cells (MTS proliferation); assay type: cell-based; details: Homo sapiens
Experimental: The ability of FLT3 kinase inhibitors to inhibit cellular proliferation was also examined. MV4:11 was a cell line derived from a patient with acute myelogenous leukemia. It expressed a mutant FLT3 protein that was constitutively active. […] Inhibition of FLT3 kinase activity prevented proliferation of these cells, and thus the MV4:11 cell line can be used a model for cellular activity of small molecule inhibitors of FLT3.
FLT3 Assay Using MV4,11 Cells
MV4,11 cells were grown in an incubator @ 37° C. in 5% CO2 in Medium 2 (RPM 10% FBS, 4 mM glutamine, Penn/Strep). The cells were counted daily and the cell density was kept between 1e5 and 8e5 cells/ml.
Day One: Enough cells were harvested for experiments to be conducted in 50 ml conical tubes. The harvested cells were spun at 500 g for 5 min at 4° C., the supernatant was then aspirated and the cells were resuspended in the starting volume of 1× PBS. The cells were again spun at 500 g for 5 min at 4° C. and the supernatant again aspirated. The cells were then resuspended in medium 3 (DMEM w/glut, 10% FBS, Penn/Strep) to a density of 4e5 cells/ml and incubated @ 37° C. in 5% CO2 O/N.
Day Two: The cells were counted and enough medium 3 was added to decrease density to 2e5 cells/ml. 50 ul (10,000 cells) was aliquoted into each well of a 96 well optical plate using multichannel pipetman. The compound plate was then set up by aliquoting 3 μl of negative control (DMSO) into column 1 of a 96 well 300 ul polypropylene plate, aliquoting 3 μl of positive control (10 mM AB20121) into column 12 of plate, and aliquoting 3 μl of appropriate compounds from serial dilutions into columns 2-11. To each well, 150 μl of Medium 3 was added and 50 μl of compound/medium mixture from compound plate into rows of optical plate in duplicate. The cells were then incubated @ 37° C. in 5% CO2 for 3 days.
Day Five: MTS was thawed in a H2O bath. 20 μl of MTS was added to each well of optical plate and the cells were incubated @ 37° C. in 5% CO2 for 2 hours. The plate was then placed on a plate shaker for 30 seconds on high speed.

Cell Assay: CS0002 = assay type: cell-based
FLT3(JMminus) = target: T1, FLT3(JMminus) (Homo sapiens, UniProt P36888); assay: Binding Assay: FLT3(JMminus), phage-displayed kinase competition binding (Kd)
T1 construct: "FLT 3(JMminus)"; fused on or other part: Fused to a T7 bacteriophage particle (phage display)
T1 sequence (P36888 610-943 limits assumed): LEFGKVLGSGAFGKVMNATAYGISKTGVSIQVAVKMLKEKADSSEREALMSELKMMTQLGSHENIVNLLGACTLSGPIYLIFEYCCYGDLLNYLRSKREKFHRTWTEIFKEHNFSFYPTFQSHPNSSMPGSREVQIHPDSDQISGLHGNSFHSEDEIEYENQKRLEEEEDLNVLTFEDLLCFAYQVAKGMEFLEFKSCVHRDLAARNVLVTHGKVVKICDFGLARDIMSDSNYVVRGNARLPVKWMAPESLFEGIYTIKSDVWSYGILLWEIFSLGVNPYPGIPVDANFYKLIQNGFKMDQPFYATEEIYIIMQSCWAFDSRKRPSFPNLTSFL
Text: (§1) Binding Constant (Kd) Measurements for Small-Molecule-Kinase Interactions
(§2) The term “ND” represents non-determined values.

FLT3(DKIN) = target: T2, FLT3(DKIN) (Homo sapiens, UniProt P36888); assay: Binding Assay: FLT3(DKIN), phage-displayed kinase competition binding (Kd)
T2 construct: 3(DKIN); made in house
T2 sequence (P36888 610-943 limits assumed): T1 sequence (P36888 610-943 limits assumed)
Text: as §1, §2

SMILES	IC50 (MV4,11 cells)	IC50 (Cell Assay: CS0002)	Kd (FLT3(JMminus))	Kd (FLT3(DKIN))
Cn1cc(C(=O)Nc2ccc(CC(=O)Nc3cc(C(C)(C)C)on3)cc2)c2ccccc21	< 100 nM	> 10000 nM	< 100 nM	
CC(C)(C)c1cc(NC(=O)Cc2ccc(NC(=O)c3cnc4ccccc4c3)cc2)no1	< 100 nM	> 10000 nM	< 100 nM	
Cc1csc(NC(=O)Cc2ccc(OCc3ccccc3)cc2)n1				> 10000 nM
CC(C)(C)c1cc(-c2nc(-c3ccc(O)cc3)no2)no1	1000 to 10000 nM			> 10000 nM
Cc1cc(C)n(C(=O)Nc2ccc(Cl)cc2)n1	> 10000 nM			> 10000 nM
CC(C)(C)c1cc(NC(=O)Cc2ccc(NC(=O)c3ccc4cnccc4n3)cc2)no1	< 100 nM	> 10000 nM	< 100 nM	
Cc1cnc(NC(=O)Cc2ccc(OCc3ccccc3)cc2)s1				> 10000 nM
O=C(Cc1ccc(OCc2ccccc2)cc1)Nc1nc2ccc(F)cc2s1				> 10000 nM
CSc1ncc(Br)c(C(=O)Nc2ccc(CC(=O)Nc3cc(C(C)(C)C)on3)cc2)n1	< 100 nM	> 10000 nM	< 100 nM	
CC(C)(C)c1cc(NC(=O)Cc2ccc(NC(=O)c3cccc4cccnc34)cc2)no1	1000 to 10000 nM	> 10000 nM	100 to 1000 nM	
CC(C)(C)c1cc(C(=O)Nc2ccc(OCC3CC3)cc2)no1	1000 to 10000 nM			> 10000 nM
Cc1noc(-c2ccc(-c3noc(-c4cc(C(C)(C)C)on4)n3)cc2)n1	> 10000 nM			> 10000 nM
Cc1nn(C)c(Cl)c1C(=O)Nc1ccc(CC(=O)Nc2cc(C(C)(C)C)on2)cc1	100 to 1000 nM	> 10000 nM	< 100 nM	
O=C(Cc1ccc(OCc2ccccc2)cc1)Nc1nc(-c2ccc(Cl)cc2)cs1				> 10000 nM
COc1cccc2sc(NC(=O)Cc3ccc(OCc4ccccc4)cc3)nc12				> 10000 nM
CC(C)(C)c1cc(-c2nc(-c3ccc(OCc4ccccc4F)cc3)no2)no1	100 to 1000 nM			> 10000 nM
CC(C)(C)c1cc(-c2nc(-c3ccc(Cl)cc3)no2)no1	> 10000 nM			> 10000 nM

The next lines start with the values.

IC50 (MV4,11 cells)	IC50 (Cell Assay: CS0002)	Kd (FLT3(JMminus))	Kd (FLT3(DKIN))	SMILES
			> 10000 nM	O=C(Cc1ccc(OCc2ccccc2)cc1)Nc1nc2ccccc2s1
1000 to 10000 nM			1000 to 10000 nM	CC(C)(C)c1cc(C(=O)Nc2ccc(OCc3ccccc3F)cc2)no1
			< 100 nM	CC(C)(C)c1cc(NC(=O)Cc2ccc(F)cc2)on1
< 100 nM			< 100 nM	CC(C)(C)c1cc(NC(=O)Cc2ccc(OCc3ccccc3)cc2)on1
			1000 to 10000 nM	CC(C)(C)c1cc(NC(=O)Sc2ccc(Cl)cc2)no1
100 to 1000 nM			> 10000 nM	Cc1ccc(NC(=O)c2ccc(-c3noc(-c4cc(C(C)(C)C)on4)n3)cc2)cc1
			100 to 1000 nM	O=C(Cc1ccc(OCc2ccccc2)cc1)Nc1nc2cc(Cl)ccc2o1
			100 to 1000 nM	CC(C)(C)c1cc(NC(=O)Cc2ccc(O)cc2)no1
			< 100 nM	CC(C)(C)c1cc(NC(=O)Cc2ccc(Br)cc2)on1
			< 100 nM	CC(C)(C)c1cc(NC(=O)Cc2ccc(Cl)cc2)on1
			100 to 1000 nM	O=C(Cc1ccc(OCc2ccccc2)cc1)Nc1cc(C2CC2)nn1-c1ccccc1
1000 to 10000 nM			1000 to 10000 nM	CC(C)(C)c1cc(/C=N/C(=N\O)c2ccc(Cl)cc2)no1
			1000 to 10000 nM	COc1ccc(SC(=O)Nc2cc(C(C)(C)C)on2)cc1
			1000 to 10000 nM	COc1ccc(CC(=O)Nc2cc(C3CC3)nn2-c2ccccc2)cc1
			< 100 nM	COc1ccc(CC(=O)Nc2cc(C(C)(C)C)no2)cc1
